Test results reported in patent publication US4442031A, “Immunopotentiating peptides” (Hoffmann-La Roche Inc., priority 1983, dated 1984).
Where no end group is shown, it is not given here.

What was measured:
[1] = Restoration of thymus weight decreased by 5-FU injection; format: in vivo, mice; conditions: for Av. thymus weight mg: 8 days after 5-FU, control 39.4, 5-FU alone 23.4; for Av. thymus weight %: % of control; for Restoration Activity(%): thymus weight
Procedure: It is known that anticancer drugs suppress immunological functions by affecting immunocytes. The thymus gland, which is essential for differentiation, maturation and supply to T-cells responsible for immunological reactions, decreases markedly in weight after injection of 5-FU. […] FIfty μg/kg of Compound A administered orally was as effective as 5 μg/kg of thymosin α1 injected intraperitoneally, when the thymus weight was measured immediately after the DTH measurement at 8 days after the 5-FU injection (see Table 5).
*Seven mice per group received the test compound one day before,
concurrently with, and 1 and 2 days after 5FU injection i.p. (100 mg/kg).
The mice were injected CRBC for The DTH assay at 3 and 7 days after the
The thymus weight was measured at 8 days after the 5FU injection.

[2] = tested on: Listeria monocytogenes EGD; test: Protection against Listeria monocytogenes infection in 5-FU immunosuppressed mice; format: in vivo; conditions: Table 8, i.p., 5-FU immunosuppressed mice, control 2/10
Procedure: (§1) Normal mice (female ddY mice, 6 weeks old) were highly tolerant to infection with Candida albicans ATCC 10231 at relatively low dose (1-2×10^5 cells, iv.). However, when pretreated daily for ten times with 5-FU (25 mg/kg/day, ip.), the mice were susceptible to infection as shown in Table 6. […] Compound A was also shown to be active against infection with Pseudomonas aeruginosa 5E81-1 and Listeria monocytogenes EGD in the immunosuppressed mice (see Tables 7 and 8).

[3] = tested on: Pseudomonas aeruginosa 5E81-1; test: Protection against Pseudomonas aeruginosa infection in 5-FU immunosuppressed mice; format: in vivo; conditions: Table 7, i.p., 5-FU immunosuppressed mice, control 0/30
Procedure: as §1

[4] = tested on: delayed-type hypersensitivity (DTH); test: Restoration of delayed-type hypersensitivity (DTH) decreased by 5-FU in BDF1 mice; format: in vivo; conditions: for DTH response %: % of control
Procedure: A poor prognosis is often observed in cancer patients with impaired immune response. Impaired immune response can be caused by the cancer itself, by chemotherapeutic agents, or by radiotherapy. Thus, therapeutic agents which restore impaired immune response in cancer patients are expected to play an important role in combination therapy. The restoration activity of the compounds of the invention on impaired cell-mediated immunity was determined by measuring the enhancement of delayed-type hypersensitivity (DTH), which was decreased to a great extent in mice treated with 5-fluorouracil (5-FU).
Female BDF1 mice (20-22 g, 11-12 weeks old) received (i.p. or p.o.) the compound to be tested on consecutive days one day before, concurrently with and 1 and 2 days after the 5-FU treatment. For DTH measurement, 10^8 chicken red blood cells (CRBC) were injected i.p. (or s.c. into the left hind footpad) and challenged s.c. into the right hind footpad at 3 and 7 days after the 5-FU treatment, respectively. Restoration activity was calculated by the following formula from the DTH response observed in the control group, 5-FU treated group treatment and the Test group treated both with 5-FU and the compound of the invention. Restoration activity was calculated by the formula: [formula]

[5] = tested on: Listeria monocytogenes EGD; test: Growth of Listeria monocytogenes in liver of P388 tumor-bearing mice; format: in vivo; conditions: Tumor-bearing CDF1 mice, i.p., seven times before infection, 3 days after infection, control 7.1
Text: The immunocompetence of tumor-bearing mice is known to be frequently deficient. This is illustrated by the fact that Listeria monocytogenes EGD grew considerably in tumor-bearing mice as compared to normal mice (see Table 9). Male CDF1 mice (6 weeks old) transplanted with P388 leukemia (3×10^5 cells, footpad) were infected with Listeria monocytogenes (2×10^3 cells, iv.) 7 days after the transplant. Three days thereafter the number of the bacteria grown in liver was counted.

[6] = tested on: P388 leukemia; test: Protective activity against P388 leukemia growth in 5-FU immunosuppressed mice; format: in vivo; conditions: for Mean Survival days (days ± S.D.): CDF1 mice, 5-FU +, P388 +, 5-FU + saline 4.1
Procedure: The treatment with cytostatic agents often decreases immunocompetence and consequently increases incidence of metastasis of tumor in cancer patients. […] In the experiment shown in Table 10, male CDF1 mice (6 week old) were treated daily for 8 times with or without 5-FU (28 mg/kg/day ip.) and then transplanted subcutaneously with P388 leukemic cells (3×10^5) into footpad 24 hours later. When pretreated with 5-FU, mice died very quickly at 4 days, while normal mice survived about 23 days after the transplant. […] Thymosin α1 and compound A may improve the immunodefense system against metastatic tumor growth in cancer patients who are receiving immunosuppressive chemotherapy. In combination with thymosin α1 or compound A, more extensive cancer chemotherapy for a longer duration may be possible.
^(1) CDF1 mice were pretreated daily for 8 times from Day 8 to
with 5FU (28 mg/kg/day, ip.).
^(2) Thymosin α1 or Compound A were administered daily for
14 times from Day 8 to 5 by ip. route.
^(3) P388 leukemic cells (3 × 10^5) were inoculated into
^(4) Survival days after the inoculation of the leukemic cells.

[7] = Table 2, 5-FU plus 0.5 μg/kg/day, i.p.
[8] = Table 2, 5-FU plus 5.0 μg/kg/day, i.p.
[9] = Table 3, first experiment, 5-FU plus 5.0 μg/kg/day, i.p.
[10] = Table 4, 5-FU plus 5.0 μg/kg/day i.p.

Substance: thymosin α1 (SDAAVDTSSEITTKDLKEKKEVVEEAEN; ends and bridges not checked; UniProt P01252 2-29, looked up) [peptide isolated from bovine thymus, stimulates maturation, differentiation and function of T cells; U.S. Pat. No. 4,079,127, reference compound]
- Av. thymus weight mg ([1]; 5-FU (100 mg/kg i.p.) plus 0.5 μg/kg/day i.p.): 24.9 ± 1.7 mg
- Av. thymus weight mg ([1]; 5-FU (100 mg/kg i.p.) plus 5.0 μg/kg/day i.p.): 26.7 ± 1.1 mg
- Av. thymus weight % ([1]; 5-FU plus 0.5 μg/kg/day i.p.): 63.2%
- Av. thymus weight % ([1]; 5-FU plus 5.0 μg/kg/day i.p.): 67.8%
- Restoration Activity(%) ([1]; 5-FU plus 0.5 μg/kg/day i.p.): 9.4%
- Restoration Activity(%) ([1]; 5-FU plus 5.0 μg/kg/day i.p.): 20.6%
- Survivors at Day 15 after infection ([2]; 4 μg/kg/day): 7/10
- Survivors at Day 15 after infection ([2]; 40 μg/kg/day): 5/10
- Survivors at Day 15 after infection ([3]; 0.4 μg/kg/day): 7/20
- Survivors at Day 15 after infection ([3]; 4 μg/kg/day): 12/30
- Survivors at Day 15 after infection ([3]; 40 μg/kg/day): 16/30
- Restoration Activity(%) [4, 7]: 1.3%
- DTH response % [4, 7]: 56.0%
- DTH response av. ± S.E. (0.1 mm) ([4]; Table 2, 5-FU plus 0.5 μg/kg/day, i.p., control 10.3, 5-FU alone 5.7): 5.8 ± 1.1 0.1 mm
- Restoration Activity(%) [4, 8]: 50.3%
- DTH response % [4, 8]: 77.8%
- DTH response av. ± S.E. (0.1 mm) ([4]; Table 2, 5-FU plus 5.0 μg/kg/day, i.p., control 10.3, 5-FU alone 5.7): 8.0 ± 1.2 0.1 mm
- DTH response av. ± S.E. (0.1 mm) ([4]; Table 3, first experiment (control 8.5, 5-FU alone 4.8), 5-FU plus 5.0 μg/kg/day, i.p.): 7.3 ± 0.8 0.1 mm
- Restoration Activity(%) [4, 9]: 68.7%
- DTH response % [4, 9]: 86.3%
- DTH response av. ± S.E. (0.1 mm) ([4]; Table 4 (control 7.7, 5-FU alone 5.6), 5-FU plus 0.5 μg/kg/day i.p.): 5.4 ± 1.2 0.1 mm
- DTH response av. ± S.E. (0.1 mm) ([4]; Table 4 (control 7.7, 5-FU alone 5.6), 5-FU plus 5.0 μg/kg/day i.p.): 7.3 ± 0.8 0.1 mm
- DTH response % ([4]; Table 4, 5-FU plus 0.5 μg/kg/day i.p.): 70.1%
- Restoration Activity(%) [4, 10]: 81.0%
- DTH response % [4, 10]: 94.8%
- Growth of Bacteria (log10 /liver) ([5]; 4 μg/kg/day): 5.0 log10 /liver
- Growth of Bacteria (log10 /liver) ([5]; 40 μg/kg/day): 5.3 log10 /liver
- Mean Survival days (days ± S.D.) ([6]; 4 μg/kg/day ip. 14 times): 17.6 ± 8.2 days
- Mean Survival days (days ± S.D.) ([6]; 40 μg/kg/day ip. 14 times): 20.7 ± 2.8 days
- survival days (in words) ([6]; daily treatment in addition to 5-FU, 8 times before and 6 times after the transplant): increased the survival days to the level similar to that obtained in normal mice
